Counter-ions that a name gives are not always drawn. Calls of active or inactive are those of the source.
Columns and labels:
[1] = biological target: Ribosomal protein S6 kinase alpha-4 (Homo sapiens, UniProt O75676)
[2] = biological target: T1, Serine/threonine-protein kinase TBK1 (Homo sapiens, UniProt Q9UHD2)
T1 sequence (Q9UHD2 whole entry): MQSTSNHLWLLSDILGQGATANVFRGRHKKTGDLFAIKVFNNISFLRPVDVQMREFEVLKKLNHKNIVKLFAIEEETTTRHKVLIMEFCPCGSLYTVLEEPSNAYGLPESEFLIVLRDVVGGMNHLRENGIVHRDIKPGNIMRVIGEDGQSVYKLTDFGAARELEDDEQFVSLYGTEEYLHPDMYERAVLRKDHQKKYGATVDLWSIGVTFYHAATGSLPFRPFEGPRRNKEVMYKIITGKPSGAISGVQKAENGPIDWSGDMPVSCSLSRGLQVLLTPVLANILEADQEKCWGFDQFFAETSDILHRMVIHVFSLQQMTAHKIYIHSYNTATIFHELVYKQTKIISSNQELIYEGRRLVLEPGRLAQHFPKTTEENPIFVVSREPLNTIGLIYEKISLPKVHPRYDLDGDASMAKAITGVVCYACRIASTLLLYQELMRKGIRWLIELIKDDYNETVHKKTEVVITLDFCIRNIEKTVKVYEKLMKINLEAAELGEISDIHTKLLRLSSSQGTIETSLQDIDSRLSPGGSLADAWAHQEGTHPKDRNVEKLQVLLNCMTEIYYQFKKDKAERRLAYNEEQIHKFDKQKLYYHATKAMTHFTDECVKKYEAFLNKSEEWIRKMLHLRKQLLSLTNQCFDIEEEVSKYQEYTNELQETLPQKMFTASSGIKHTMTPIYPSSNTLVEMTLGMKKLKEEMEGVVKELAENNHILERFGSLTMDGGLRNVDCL

Pyridoxal kinase = biological target: T2, Pyridoxal kinase (Homo sapiens, UniProt O00764)
T2 sequence (O00764 whole entry): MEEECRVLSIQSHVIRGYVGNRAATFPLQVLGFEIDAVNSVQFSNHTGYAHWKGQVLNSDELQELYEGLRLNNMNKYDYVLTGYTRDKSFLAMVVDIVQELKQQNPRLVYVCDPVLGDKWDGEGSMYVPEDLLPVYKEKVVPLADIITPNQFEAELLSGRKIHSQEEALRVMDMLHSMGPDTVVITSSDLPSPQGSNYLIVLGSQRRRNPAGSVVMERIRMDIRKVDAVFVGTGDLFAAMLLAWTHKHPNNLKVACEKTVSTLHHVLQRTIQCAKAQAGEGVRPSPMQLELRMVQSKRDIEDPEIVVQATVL

[3] = biological target: T3, Ras-related protein Rab-10 (Homo sapiens, UniProt P61026)
T3 sequence (P61026 whole entry): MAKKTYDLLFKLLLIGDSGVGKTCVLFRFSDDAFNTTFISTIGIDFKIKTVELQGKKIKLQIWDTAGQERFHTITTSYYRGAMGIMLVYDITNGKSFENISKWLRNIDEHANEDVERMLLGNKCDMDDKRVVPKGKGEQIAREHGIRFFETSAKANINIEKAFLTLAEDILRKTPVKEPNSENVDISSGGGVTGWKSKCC

[4] = biological target: Tyrosine-protein kinase SYK (Homo sapiens, UniProt P43405)
[5] = biological target: T4, Eukaryotic translation initiation factor 5B (Homo sapiens, UniProt O60841)
T4 sequence (O60841 whole entry): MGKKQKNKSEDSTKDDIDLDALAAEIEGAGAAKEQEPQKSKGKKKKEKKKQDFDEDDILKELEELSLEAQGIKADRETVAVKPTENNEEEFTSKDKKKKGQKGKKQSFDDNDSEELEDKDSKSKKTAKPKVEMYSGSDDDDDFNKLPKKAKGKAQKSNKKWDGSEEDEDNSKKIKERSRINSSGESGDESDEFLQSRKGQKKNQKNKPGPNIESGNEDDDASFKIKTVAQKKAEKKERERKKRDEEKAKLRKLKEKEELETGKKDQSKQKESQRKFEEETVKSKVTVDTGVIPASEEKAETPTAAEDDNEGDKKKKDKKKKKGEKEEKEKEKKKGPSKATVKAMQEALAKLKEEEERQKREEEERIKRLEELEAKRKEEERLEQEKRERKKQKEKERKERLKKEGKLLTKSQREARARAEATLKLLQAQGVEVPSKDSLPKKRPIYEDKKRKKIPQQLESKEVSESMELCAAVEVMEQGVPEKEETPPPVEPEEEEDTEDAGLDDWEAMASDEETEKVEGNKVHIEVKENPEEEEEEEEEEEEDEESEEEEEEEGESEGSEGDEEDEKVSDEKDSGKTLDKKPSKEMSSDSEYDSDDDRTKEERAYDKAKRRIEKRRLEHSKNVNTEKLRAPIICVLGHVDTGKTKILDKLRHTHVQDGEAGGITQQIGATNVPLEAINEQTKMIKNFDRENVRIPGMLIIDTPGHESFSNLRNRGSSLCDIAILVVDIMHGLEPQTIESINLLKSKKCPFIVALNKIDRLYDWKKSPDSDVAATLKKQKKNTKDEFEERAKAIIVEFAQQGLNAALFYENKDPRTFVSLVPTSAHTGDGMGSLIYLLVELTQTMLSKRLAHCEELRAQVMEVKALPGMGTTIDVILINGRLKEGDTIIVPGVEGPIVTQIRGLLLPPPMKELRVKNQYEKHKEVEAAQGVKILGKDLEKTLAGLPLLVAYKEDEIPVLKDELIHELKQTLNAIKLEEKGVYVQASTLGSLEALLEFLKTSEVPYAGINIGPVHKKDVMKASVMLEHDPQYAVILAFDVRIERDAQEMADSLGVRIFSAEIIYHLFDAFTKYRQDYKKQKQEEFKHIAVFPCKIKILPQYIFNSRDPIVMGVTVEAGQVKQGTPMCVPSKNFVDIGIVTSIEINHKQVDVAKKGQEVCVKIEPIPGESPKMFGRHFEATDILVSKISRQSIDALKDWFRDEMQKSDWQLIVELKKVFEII
Further: in the data inactive means no Kd found up to 30 µM.

Chain of Ribosomal protein S6 kinase alpha-4 (O75676 whole entry): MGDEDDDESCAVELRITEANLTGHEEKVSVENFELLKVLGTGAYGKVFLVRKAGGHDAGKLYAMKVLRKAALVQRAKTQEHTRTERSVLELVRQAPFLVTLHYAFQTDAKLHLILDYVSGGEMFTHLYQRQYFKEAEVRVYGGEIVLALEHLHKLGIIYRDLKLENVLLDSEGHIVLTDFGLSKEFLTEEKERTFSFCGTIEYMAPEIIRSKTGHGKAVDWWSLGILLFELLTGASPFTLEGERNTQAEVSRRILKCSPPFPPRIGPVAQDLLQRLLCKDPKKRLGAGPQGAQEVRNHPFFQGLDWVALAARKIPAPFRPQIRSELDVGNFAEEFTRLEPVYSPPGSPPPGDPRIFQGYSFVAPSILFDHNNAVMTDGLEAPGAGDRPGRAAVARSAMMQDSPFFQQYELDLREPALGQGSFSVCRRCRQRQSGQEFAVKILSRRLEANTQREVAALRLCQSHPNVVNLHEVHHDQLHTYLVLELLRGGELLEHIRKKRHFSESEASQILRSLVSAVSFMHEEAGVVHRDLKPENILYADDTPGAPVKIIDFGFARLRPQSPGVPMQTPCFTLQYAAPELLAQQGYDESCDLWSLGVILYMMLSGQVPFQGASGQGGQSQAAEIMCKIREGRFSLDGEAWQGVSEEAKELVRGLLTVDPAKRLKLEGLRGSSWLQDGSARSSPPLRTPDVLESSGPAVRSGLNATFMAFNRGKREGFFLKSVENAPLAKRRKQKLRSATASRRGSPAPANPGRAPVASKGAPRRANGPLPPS

| Kd [1] | Kd [2] | Kd (Pyridoxal kinase) | Kd [3] | Kd [4] | Kd [5] | Structure (SMILES) |
| --- | --- | --- | --- | --- | --- | --- |
| > 30 µM (inactive) | > 30 µM (inactive) | > 30 µM (inactive) | > 30 µM (inactive) | > 30 µM (inactive) | > 30 µM (inactive) | C[C@H]1CNCCCN1S(=O)(=O)c1cccc2cncc(F)c12 |
| > 30 µM (inactive) | > 30 µM (inactive) | > 30 µM (inactive) | > 30 µM (inactive) | > 30 µM (inactive) | > 30 µM (inactive) | C=CC(=O)N1CCC[C@H](n2c(=O)n(-c3ccc(Oc4ccccc4)cc3)c3c(N)ncnc32)C1 |
| > 30 µM (inactive) | > 30 µM (inactive) | > 30 µM (inactive) | > 30 µM (inactive) | > 30 µM (inactive) | > 30 µM (inactive) | Cc1nc2cc(-c3nn(C(C)C)c4ncnc(N)c34)ccc2o1 |
| > 30 µM (inactive) | > 30 µM (inactive) | > 30 µM (inactive) | > 30 µM (inactive) | > 30 µM (inactive) | > 30 µM (inactive) | Cc1nc(NC(=O)N2CCC[C@H]2C(N)=O)sc1-c1ccnc(C(C)(C)C(F)(F)F)c1 [ALPELISIB] |
| 2.07 µM (active) | > 30 µM (inactive) | > 30 µM (inactive) | > 30 µM (inactive) | > 30 µM (inactive) | > 30 µM (inactive) | Cc1csc(-c2nnc(Nc3ccc(Oc4ncccc4-c4ccnc(N)n4)cc3)c3ccccc23)c1 [AMG-900] |
| – | – | > 30 µM (inactive) | > 30 µM (inactive) | 0.116 µM (active) | > 30 µM (inactive) | O=C(Nc1c[nH]nc1-c1nc2cc(CN3CCOCC3)ccc2[nH]1)NC1CC1 [AT-9283] |
| > 30 µM (inactive) | > 30 µM (inactive) | > 30 µM (inactive) | > 30 µM (inactive) | > 30 µM (inactive) | > 30 µM (inactive) | C=CC(=O)Nc1cc2c(Nc3ccc(F)c(Cl)c3)ncnc2cc1C#CC(C)(C)N1CCN(C)CC1 [AV-412 FREE BASE] |
| > 30 µM (inactive) | > 30 µM (inactive) | > 30 µM (inactive) | > 30 µM (inactive) | > 30 µM (inactive) | > 30 µM (inactive) | Cc1cc(C(=O)NOCCO)c(Nc2ccc(I)cc2F)n(C)c1=O [AZD-8330] |
| > 30 µM (inactive) | > 30 µM (inactive) | > 30 µM (inactive) | > 30 µM (inactive) | > 30 µM (inactive) | > 30 µM (inactive) | Cn1cnc2c(F)c(Nc3ccc(Br)cc3F)c(C(=O)NOCCO)cc21 [BINIMETINIB] |
| > 30 µM (inactive) | > 30 µM (inactive) | > 30 µM (inactive) | > 30 µM (inactive) | > 30 µM (inactive) | > 30 µM (inactive) | CCn1c(C(=O)N(C2CC2)C2CC2)cc2c3c(ncn3C)c(Nc3cc(C)n(C)n3)nc21 [BMS-911543] |
| > 30 µM (inactive) | > 30 µM (inactive) | > 30 µM (inactive) | > 30 µM (inactive) | > 30 µM (inactive) | > 30 µM (inactive) | COc1cc2ncnc(Oc3cccc(NC(=O)Nc4cc(C(C)(C)C(F)(F)F)on4)c3)c2cc1OC [CEP-32496] |
| > 30 µM (inactive) | > 30 µM (inactive) | > 30 µM (inactive) | > 30 µM (inactive) | > 30 µM (inactive) | > 30 µM (inactive) | COc1c(OCCCN2CCOCC2)ccc2c1N=C(NC(=O)c1cnc(N)nc1)N1CCN=C21 [COPANLISIB] |
| > 30 µM (inactive) | > 30 µM (inactive) | > 30 µM (inactive) | > 30 µM (inactive) | > 30 µM (inactive) | > 30 µM (inactive) | COCC(=O)NC/C=C/c1ccc2ncnc(Nc3ccc(Oc4ccc(C)nc4)c(C)c3)c2c1 [CP-724714] |
| > 30 µM (inactive) | – | > 30 µM (inactive) | > 30 µM (inactive) | 0.44 µM (active) | > 30 µM (inactive) | CCS(=O)(=O)N1CCN(c2ccc(Nc3ncc(C(N)=O)c(NC4CC4)n3)cc2)CC1 [Cerdulatinib Hydrochloride] |
| > 30 µM (inactive) | > 30 µM (inactive) | 2.11 µM (active) | > 30 µM (inactive) | > 30 µM (inactive) | > 30 µM (inactive) | Cc1nc2cc(-n3ncc(C(=O)c4cc5ccccc5[nH]4)c3N)ccc2[nH]1 [FGFR INHIBITOR DEBIO 1347] |
| – | – | > 30 µM (inactive) | > 30 µM (inactive) | – | > 30 µM (inactive) | C[C@@H](Oc1cc(-n2cnc3ccc(CN4CCN(C)CC4)cc32)sc1C(N)=O)c1ccccc1C(F)(F)F [GSK-461364] |
| 1.39 µM (active) | 1.98 µM (active) | > 30 µM (inactive) | > 30 µM (inactive) | – | > 30 µM (inactive) | Cc1[nH]c(/C=C2\C(=O)Nc3ccccc32)c(C)c1CCC(=O)O [ORANTINIB] |
| – | – | > 30 µM (inactive) | > 30 µM (inactive) | – | > 30 µM (inactive) | NC(=O)c1c(OCc2c(F)cc(Br)cc2F)nsc1NC(=O)NCCCCN1CCCC1 [OSI-632] |
| – | – | > 30 µM (inactive) | > 30 µM (inactive) | > 30 µM (inactive) | > 30 µM (inactive) | Cc1nc(Nc2n[nH]c3c2CN(C(=O)N[C@H](CN(C)C)c2ccccc2)C3(C)C)c2sccc2n1 [PF-03758309] |
| – | – | > 30 µM (inactive) | > 30 µM (inactive) | – | > 30 µM (inactive) | O=C(NOCCO)c1cc(CN2OCCCC2=O)c(F)c(F)c1Nc1ccc(I)cc1F [RO-4987655] |
| – | – | > 30 µM (inactive) | > 30 µM (inactive) | – | > 30 µM (inactive) | N#CC[C@H](C1CCCC1)n1cc(-c2ncnc3[nH]ccc23)cn1 [RUXOLITINIB] |

| Structure (SMILES) | Kd [1] | Kd [2] | Kd (Pyridoxal kinase) | Kd [3] | Kd [4] | Kd [5] |
| --- | --- | --- | --- | --- | --- | --- |
| CC(=O)c1cnc2ccc(-c3cc(Cl)c(O)c(Cl)c3)nc2c1N[C@H]1CC[C@H](CN(C)C)CC1 | 0.111 µM (active) | – | > 30 µM (inactive) | > 30 µM (inactive) | > 30 µM (inactive) | > 30 µM (inactive) |
| CC(C)(C)c1nc(-c2cccc(NS(=O)(=O)c3c(F)cccc3F)c2F)c(-c2ccnc(N)n2)s1 [DABRAFENIB] | – | > 30 µM (inactive) | > 30 µM (inactive) | > 30 µM (inactive) | > 30 µM (inactive) | > 30 µM (inactive) |
| O=C(Nc1cc(C(F)(F)F)cc(C(F)(F)F)c1)c1cc(Cl)ccc1O [IMD-0354] | > 30 µM (inactive) | > 30 µM (inactive) | > 30 µM (inactive) | – | > 30 µM (inactive) | > 30 µM (inactive) |

Source: ChEMBL document CHEMBL3991601, “The target landscape of clinical kinase drugs” (Science, 2017)
